Results taken from article PMC10836395, “Investigation of how gate residues in the main channel affect the catalytic activity of Scytalidium thermophilum catalase” (Acta Crystallographica. Section D, Structural Biology, 2024).
Positions count from the first letter of the chain named. Marks after values point to notes of the source that are not given here.

How the values were obtained:
CATPO E484A variant = CATPO E484A variant (Scytalidium thermophilum (Humicola insolens), UniProt M4GGR5, E503A); experiment: biochemical
CATPO E484A variant, sequence (M4GGR5 entry or part of it E503A): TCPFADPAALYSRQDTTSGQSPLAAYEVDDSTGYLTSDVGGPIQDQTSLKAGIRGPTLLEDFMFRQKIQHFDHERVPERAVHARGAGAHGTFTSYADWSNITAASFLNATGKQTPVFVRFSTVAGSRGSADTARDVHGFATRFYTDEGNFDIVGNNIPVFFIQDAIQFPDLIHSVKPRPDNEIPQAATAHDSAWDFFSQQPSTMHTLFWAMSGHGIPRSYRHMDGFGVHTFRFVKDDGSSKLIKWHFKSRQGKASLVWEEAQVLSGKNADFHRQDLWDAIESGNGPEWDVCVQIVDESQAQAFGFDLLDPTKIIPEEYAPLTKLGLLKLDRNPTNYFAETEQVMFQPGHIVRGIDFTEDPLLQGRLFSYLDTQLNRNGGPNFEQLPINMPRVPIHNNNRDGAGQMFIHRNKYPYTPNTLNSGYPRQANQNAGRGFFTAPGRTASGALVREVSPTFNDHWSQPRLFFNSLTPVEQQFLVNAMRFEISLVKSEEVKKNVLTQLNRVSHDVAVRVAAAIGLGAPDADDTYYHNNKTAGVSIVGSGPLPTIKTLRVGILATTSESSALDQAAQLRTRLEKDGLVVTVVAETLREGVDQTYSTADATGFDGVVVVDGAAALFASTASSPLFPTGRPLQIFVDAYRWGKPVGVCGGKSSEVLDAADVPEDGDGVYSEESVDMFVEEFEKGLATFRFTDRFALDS

CATPO T188I variant [1] = biological target: T1, CATPO T188I variant (Scytalidium thermophilum (Humicola insolens), UniProt M4GGR5, T207I); experiment: biochemical
T1 sequence (M4GGR5 entry or part of it T207I): as the sequence (M4GGR5 entry or part of it E503A) above

T188I = biological target: T2, T188I (Mycothermus thermophilus, UniProt M4GGR5, T207I); experiment: Spectrophotometric phenol oxidase assay without H2O2 at pH 7.0 and 60 °C, initial rates fitted to the Michaelis-Menten equation.; assay type: biochemical; conditions: read-out: Phenol oxidase K m; n = 3
T2 construct: recombinant, pET-28-TEV-CATPO; contains heme b; Rz 0.4
T2 sequence (M4GGR5 20-717 T207I): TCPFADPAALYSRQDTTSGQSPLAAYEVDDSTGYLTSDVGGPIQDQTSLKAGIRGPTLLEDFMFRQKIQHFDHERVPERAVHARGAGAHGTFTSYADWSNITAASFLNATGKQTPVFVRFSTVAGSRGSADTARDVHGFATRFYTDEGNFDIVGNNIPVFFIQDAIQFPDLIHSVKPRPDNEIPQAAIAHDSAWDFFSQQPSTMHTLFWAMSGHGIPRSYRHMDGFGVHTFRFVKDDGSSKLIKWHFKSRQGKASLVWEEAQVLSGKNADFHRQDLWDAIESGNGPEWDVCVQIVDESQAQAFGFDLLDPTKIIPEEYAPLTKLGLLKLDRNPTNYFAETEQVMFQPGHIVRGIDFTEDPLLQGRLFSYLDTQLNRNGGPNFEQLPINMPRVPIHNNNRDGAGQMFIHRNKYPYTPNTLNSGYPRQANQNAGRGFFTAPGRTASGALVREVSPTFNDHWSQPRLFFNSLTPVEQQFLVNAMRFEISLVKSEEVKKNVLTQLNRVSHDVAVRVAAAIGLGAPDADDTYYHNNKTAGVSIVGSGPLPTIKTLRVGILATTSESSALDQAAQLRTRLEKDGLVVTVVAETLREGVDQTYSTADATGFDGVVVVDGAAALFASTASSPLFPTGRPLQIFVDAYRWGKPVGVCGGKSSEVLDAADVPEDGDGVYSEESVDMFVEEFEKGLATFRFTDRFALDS
Method: (§1) All inhibition assays were performed in triplicate.

CATPO = biological target: T3, CATPO (Mycothermus thermophilus, UniProt M4GGR5); experiment: as above; assay type: biochemical; conditions: n = 3
T3 construct: recombinant, pET-28-TEV-CATPO; contains heme d; Rz 0.8
T3 sequence (M4GGR5 20-717): T2 sequence (M4GGR5 20-717 T207I) with I188T
Method: as §1

T188F = biological target: T4, T188F (Mycothermus thermophilus, UniProt M4GGR5, T207F); experiment: as above; assay type: biochemical; conditions: read-out: Phenol oxidase K m; n = 3
T4 construct: recombinant, pET-28-TEV-CATPO; contains heme b; Rz 0.8
T4 sequence (M4GGR5 20-717 T207F): T2 sequence (M4GGR5 20-717 T207I) with I188F
Method: as §1

CATPO T188I variant [2] = biological target: T1, CATPO T188I variant; assay type: biochemical
CATPO E484I variant = CATPO E484I variant (Scytalidium thermophilum (Humicola insolens), UniProt M4GGR5, E503I); experiment: biochemical
CATPO E484I variant, sequence (M4GGR5 entry or part of it E503I): as the sequence (M4GGR5 entry or part of it E503A) above

SMILES: Oc1cccc(O)c1O [Pyrogallol, pyrogallol]
- Ki (CATPO E484A variant): 71 ± 4 mM
- Ki (CATPO T188I variant [1]): 62 ± 2.5 mM
- K m (T188I): 38 ± 0.5 mM
- K m (CATPO): 40 ± 1.8 mM
- K m (T188F): 37 ± 0.5 mM
- V max (CATPO T188I variant [2]): 27400 ± 310 mM/min
- k cat/K m (CATPO T188I variant [2]): 3470 ± 256 s^−1 M^−1 (×10^2)
- K m (CATPO T188I variant [2]; pH 7.0 (ABTS pH 5.0), 60°C): 38 ± 0.5 mM
- Ki (CATPO E484I variant): 58 ± 1.8 mM
